Experimental data published in publication PMC8322138, “BRCA2 binding through a cryptic repeated motif to HSF2BP oligomers does not impact meiotic recombination” (Nature Communications, 2021).

T1: ARM domain of HSF2BP (Homo sapiens, UniProt O75031)
T1 construct: The armadillo domain of HSF2BP, from aa 122 to aa 334; 6xHis-TEV (N, cleaved yes); made in house; host or cells: E. coli BL21 DE3 Rosetta2
T1 sequence (O75031 122-334): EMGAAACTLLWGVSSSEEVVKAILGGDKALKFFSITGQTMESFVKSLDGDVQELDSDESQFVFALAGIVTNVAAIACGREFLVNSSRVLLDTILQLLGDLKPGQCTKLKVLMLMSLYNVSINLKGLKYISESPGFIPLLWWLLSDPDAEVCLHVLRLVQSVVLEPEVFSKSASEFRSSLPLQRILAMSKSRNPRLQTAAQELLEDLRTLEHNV


Key:
ARM domain of HSF2BP [1] = target: T1, ARM domain of HSF2BP; assay: SEC-SAXS of ARM bound to F15X; assay type: physicochemical
Protocol: SEC coupled to SAXS is available on the SWING beamline at synchrotron SOLEIL, in order to obtain a distance distribution corresponding to each sample in solution. The free HSF2BP protein as well as the complex between ARM and F15X were analyzed using a Bio SEC-3 column (Agilent) equilibrated in 25 mM Tris-HCl buffer, pH 7.5, 250 mM NaCl, and 5 mM β-mercaptoethanol. The proteins were loaded at a concentration of 6 and 10 mg/ml, in order to observe an elution peak at an OD280nm of 1 and 1.2 AU, respectively.

ARM domain of HSF2BP [2] = target: T1, ARM domain of HSF2BP; assay: SEC-MALS of ARM free or bound to F15X; assay type: physicochemical; details: for oligomeric state of ARM: SEC-MALS and SEC-SAXS; for molecular weight of species in solution: SEC-MALS, Superdex 200 10/300 GL, 25 mM Tris-HCl pH 7.5, 250 mM NaCl, 5 mM β-mercaptoethanol
Protocol: Size-exclusion chromatography (SEC) coupled to MALS was used in order to measure the molecular masses of the complexes in solution. Therefore, HSF2BP and ARM proteins were loaded in the presence and absence of the BRCA2 fragment F15X on a Superdex 200 10/300 GL (GE Healthcare) using a HPLC Shimadzu system coupled to MALS/QELS/UV/RI (Wyatt Technology). The chromatography buffer was 25 mM Tris-HCl buffer, pH 7.5, 250 mM NaCl, 5 mM β-mercaptoethanol. The proteins were injected at 0.8–1 mg/ml in 100 μl. Data were analyzed using the ASTRA software; a calibration was performed with BSA as a standard.

ARM domain of HSF2BP [3] = target: T1, ARM domain of HSF2BP; assay: ITC of BRCA2 fragments with HSF2BP armadillo domain; assay type: binding; details: for n (stoichiometry) / ΔG / −TΔS / ΔH (±error): 293 K
From the text: Human full-length HSF2BP WT and R200T were expressed using a pETM11 (6xHis-TEV) expression vector in E. coli BL21 DE3 Rosetta2 cells, and purified as previously reported (Brandsma et al., Cell Rep 2019). The armadillo domain of HSF2BP, from aa 122 to aa 334, which we will further name ARM, was similarly expressed using a pETM11 (6xHis-TEV) expression vector in BL21 DE3 Rosetta2 cells and purified as full-length HSF2BP.
Human BRCA2 fragment F0 was expressed using a pET-22b expression vector as a fusion protein comprising BRCA2 from aa 2213 to aa 2342 (including mutation C2332T to avoid oxidation problems), a TEV site, a GB1 and 6xHis tag, in E. coli BL21 DE3 Star cells. The BRCA2 gene was optimized for expression in bacteria and synthesized by Genscript. In addition, smaller BRCA2 fragments were produced using the same strategy: FNMR and F15X corresponding to aa 2252 to aa 2342 and aa 2291 to aa 2343, respectively. The smallest fragment F15X∆12, from aa 2312 to aa 2342, was synthesized by Genecust.
ITC experiments were performed using a high-precision VP-ITC instrument (GE Healthcare) at 293 K. To characterize the interactions between HSF2BP and BRCA2 fragments (WT, variants), the proteins were dialyzed against 25 mM Tris pH 7.5, 250 mM NaCl, 5 mM β-mercaptoethanol. The HSF2BP (or ARM domain) was in the sample cell at 10–20 μM and was titrated by BRCA2 fragments at 40–100 μM, using 10 μL injections with 210 s intervals between each injection. The first 2 μL injection was ignored in the final data analysis. The integration of the peaks corresponding to each injection. the correction for the baseline and the fit were performed using the Origin 7.0 software provided by the manufacturer, to obtain the stoichiometry (N), dissociation constant (Kd), and enthalpy of complex formation (ΔH) for each interaction. Two replicates were performed for each experiment.

BRCA2 (Flag-F9) = assay: Co-immunoprecipitation of GFP-HSF2BP variants with Flag-BRCA2 F9; assay type: cell-based, human; details: transient HEK293T / stable HeLa, anti-GFP beads, immunoblot
From the text: Expression constructs for producing point mutation and truncation variants of HS2BP and BRCA2 in human cells were engineered as described before[16] in the PiggyBac vectors by Gibson assembly. For transient expression into HEK293T cells plasmid DNA was transfected using calcium precipitation method or PEI transfection. For stable integration into HeLa cells, PiggyBac expression vectors were co-lipofected together with PiggyBac transposase plasmid (hyPBase[45]) with Lipofectamine 3000 (Thermo Fisher).
Cells were washed twice in ice-cold PBS and lysed in situ in NETT buffer (100 mM NaCl, 50 mM Tris pH 7.5, 5 mM EDTA pH 8.0, 0.5% Triton-X100) supplemented immediately before use with protease inhibitor cocktail (Roche) and 0.4 mg/ml Pefabloc (Roche) (NETT++); 450 µl NETT++ buffer was used per 145 mm dish ES cells, 1 ml for HeLa and HEK293T. After 5–10 min, cells were scraped off and collected in 1.5 ml microcentrifuge tubes; lysis was continued for additional 20–30 min on ice, then mixtures were centrifuged (15 min, 4 °C, 14,000 × g) and the supernatant (input) was added to washed anti-GFP beads (Chromotek). Beads and lysates were incubated 2–4 h at 4 °C while rotating, washed three times in NETT++ buffer and bound proteins were eluted by boiling in 2x Sample buffer. Immunoblotting was performed following standard procedures with the following antibodies: anti-GFP mAb (Roche, #11814460001), anti-GFP pAb (Abcam #ab290 and Invitrogen #A11122), anti-RAD51[46], anti-BRCA2 mAb Ab1 OP-95 (Millipore #OP95), anti-BRCA2 (Abcam #27976), anti-Flag (M2 antibody, Sigma, F3165 and F1804). For quantitative immunoblotting fluorescently labeled secondary antibodies were used: anti-mouse CF680 (Sigma #SAB460199), anti-rabbit CF770 (Sigma #SAB460215); membranes were scanned using Odyssey CLx imaging system (LI-COR).

| Dmax of complex with ARM (ARM domain of HSF2BP [1]) [Å] | Rg of complex with ARM (ARM domain of HSF2BP [1]) [Å] | molecular weight of complex with ARM (ARM domain of HSF2BP [1]; Bio SEC-3, 25 mM Tris-HCl pH 7.5, 250 mM NaCl, theoretical mass of four ARM bound to two F15X 108 kDa) [kDa] | n (stoichiometry) (ARM domain of HSF2BP [3]; pH 7.5, expt 1) | ΔG (ARM domain of HSF2BP [3]; pH 7.5, expt 1) [kcal/mol] | −TΔS (ARM domain of HSF2BP [3]; pH 7.5, expt 1) [kcal/mol] | ΔH (±error) (ARM domain of HSF2BP [3]; pH 7.5, expt 1, error in brackets) | n (stoichiometry) (ARM domain of HSF2BP [3]; pH 7.5, expt 2) | ΔG (ARM domain of HSF2BP [3]; pH 7.5, expt 2) [kcal/mol] | −TΔS (ARM domain of HSF2BP [3]; pH 7.5, expt 2) [kcal/mol] | ΔH (±error) (ARM domain of HSF2BP [3]; pH 7.5, expt 2, error in brackets) | affinity relative to F0 (ARM domain of HSF2BP [3]; compared with the affinity measured between ARM and F0) | binding to BRCA2 (co-precipitation) (BRCA2 (Flag-F9)) | Molecule | oligomeric state of ARM (ARM domain of HSF2BP [2]) | molecular weight of species in solution (ARM domain of HSF2BP [2]) [kDa] |
| --- | --- | --- | --- | --- | --- | --- | --- | --- | --- | --- | --- | --- | --- | --- | --- |
| 104 | 34 | 109 | 0.33 | -10.6 | -0.4 | −10.2 (0.1) kcal/mol | 0.40 | -10.7 | -1.5 | −9.2 (0.1) kcal/mol | about threefold higher |  | CC[C@H](C)[C@H](NC(=O)[C@H](CCCNC(=N)N)NC(=O)[C@H](CC(=O)O)NC(=O)[C@H](Cc1ccccc1)NC(=O)[C@H](CCC(=O)O)NC(=O)[C@@H](N)CC(N)=O)C(=O)N[C@H](C(=O)N[C@@H](CCC(=O)O)C(=O)N[C@@H](CC(N)=O)C(=O)N[C@@H](CCC(N)=O)C(=O)N[C@@H](CCC(=O)O)C(=O)N[C@@H](CCCCN)C(=O)N[C@@H](CO)C(=O)N[C@@H](CC(C)C)C(=O)N[C@@H](CCCCN)C(=O)N[C@@H](C)C(=O)N[C@@H](CO)C(=O)N[C@@H](CCCCN)C(=O)N[C@@H](CO)C(=O)N[C@H](C(=O)N1CCC[C@H]1C(=O)N[C@@H](CC(=O)O)C(=O)NCC(=O)N[C@H](C(=O)N[C@H](C(=O)N[C@@H](CCCCN)C(=O)N[C@@H](CC(=O)O)C(=O)N[C@@H](CCCNC(=N)N)C(=O)N[C@@H](CCCNC(=N)N)C(=O)N[C@@H](CC(C)C)C(=O)N[C@@H](Cc1ccccc1)C(=O)N[C@@H](CCSC)C(=O)N[C@@H](Cc1c[nH]cn1)C(=O)N[C@@H](Cc1c[nH]cn1)C(=O)N[C@H](C(=O)N[C@@H](CO)C(=O)N[C@@H](CC(C)C)C(=O)N[C@@H](CCC(=O)O)C(=O)N1CCC[C@H]1C(=O)N[C@H](C(=O)N[C@H](C(=O)N[C@H](C(=O)N[C@H](C(=O)N1CCC[C@H]1C(=O)N[C@@H](Cc1ccccc1)C(=O)N[C@@H](CCCNC(=N)N)C(=O)N[C@H](C(=O)N[C@H](C(=O)N[C@@H](CCCCN)C(=O)N[C@@H](CCC(=O)O)C(=O)N[C@@H](CCCNC(=N)N)C(=O)N[C@@H](CCC(N)=O)C(=O)N[C@@H](CCC(=O)O)C(=O)O)[C@@H](C)O)[C@@H](C)O)C(C)C)[C@@H](C)O)[C@@H](C)O)[C@@H](C)CC)C(C)C)[C@@H](C)CC)[C@@H](C)O)[C@@H](C)O)[C@@H](C)CC [F15X] | tetrameric | 94 |
|  |  |  |  |  |  |  |  |  |  |  |  | minimal interaction region | H3: HSF2BP fragment E122-V334, armadillo domain (protein, left off: His6, end not stated, cleaved, HSF2BP fragment E122-V334, armadillo domain) EMGAAACTLLWGVSSSEEVVKAILGGDKALKFFSITGQTMESFVKSLDGDVQELDSDESQFVFALAGIVTNVAAIACGREFLVNSSRVLLDTILQLLGDLKPGQCTKLKVLMLMSLYNVSINLKGLKYISESPGFIPLLWWLLSDPDAEVCLHVLRLVQSVVLEPEVFSKSASEFRSSLPLQRILAMSKSRNPRLQTAAQELLEDLRTLEHNV | dimeric | 48 |
